From patent US20130065897A1, “COMPOUNDS, PREPARATION AND USES THEREOF” (PETER MACCALLUM CANCER INSTITUTE, priority 2009, published 2013)

What was measured:
[1] = target: recombinant perforin (UniProt P10820); assay type: cell-based; details: read-out: Jurkat IC50; recombinant perforin pre-incubated 30 min with compound; 51Cr-labelled Jurkat cells, 0.1% BSA, 37° C. 4 hours
In short: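 Jurkat T lymphoma target cells labelled 1 h with 100 μCi ^51Cr, washed, resuspended at 1×10^5 cells/mL in RPMI with 0.1% BSA; lysis read as ^51Cr release into supernatant by gamma counting. Triplicate points; IC50 from the concentration range.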

[2] = system: KHYG-1 NK cells; test: Toxicity to KHYG-1 NK cells (trypan blue viability); assay type: cell-based; details: viable cells as percentage of total (% viability), 18 to 24 hours
[3] = system: KHYG-1 NK cell-mediated lysis of K562 cells; test: Inhibition of KHYG-1 NK cell-mediated lysis of K562 cells (51Cr release); assay type: cell-based; details: K562 target cells, Effector:Target 2:1, 4 hours 37° C.
In short: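 KHYG-1 NK effector cells in RPMI+0.1% BSA were preincubated with compounds up to 20 μM for 20 minutes at RT. ⁵¹Cr-labelled K562 targets were then added (E:T 2:1) for 4 hours at 37 °C, and ⁵¹Cr release gamma-counted as percent specific cytotoxicity, mean of triplicates ± SEM.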

Sequence of recombinant perforin (P10820 whole entry): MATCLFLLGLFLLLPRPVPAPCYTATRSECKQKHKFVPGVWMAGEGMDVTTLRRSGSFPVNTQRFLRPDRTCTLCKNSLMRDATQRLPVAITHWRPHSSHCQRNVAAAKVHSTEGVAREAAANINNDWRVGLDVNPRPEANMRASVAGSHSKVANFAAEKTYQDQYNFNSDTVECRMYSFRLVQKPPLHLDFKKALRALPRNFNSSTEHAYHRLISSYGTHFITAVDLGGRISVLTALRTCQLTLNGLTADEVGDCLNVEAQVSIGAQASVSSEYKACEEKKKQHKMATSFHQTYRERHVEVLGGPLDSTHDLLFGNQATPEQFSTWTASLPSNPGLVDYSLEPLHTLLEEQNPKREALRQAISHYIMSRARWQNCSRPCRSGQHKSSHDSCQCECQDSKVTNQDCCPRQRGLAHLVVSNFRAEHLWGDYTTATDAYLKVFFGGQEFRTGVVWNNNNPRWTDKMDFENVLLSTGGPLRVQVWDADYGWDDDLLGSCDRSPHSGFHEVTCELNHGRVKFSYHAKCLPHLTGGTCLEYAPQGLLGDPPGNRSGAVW

For `O=C1NC(=S)N/C1=C/c1cc2cc(-c3ccc4c(c3)COC4=O)ccc2o1` [Cmpd 10, (2)-5-((5-(1-Oxo-1,3-dihydroisobenzofuran-5-yl)benzofuran-2-yl)methylene)-2-thioxoimidazolidin-4-one], the IC50 [1] was 620 nM, the “percent viable KHYG-1 cells (trypan blue) at 20 μM” value (from here on “percent viable KHYG-1 cells”) [2] was 88% and the melting point was over 300 °C. It also gave an inhibition at 20 µM [3] of 51%.

In the case of `O=C1NC(=S)N/C1=C/c1cc2ccc(-c3ccc4c(c3)COC4=O)cc2[nH]1` [Cmpd 11, (E,Z)-5-((6-(1-Oxo-1,3-dihydroisobenzofuran-5-yl)-1H-indol-2-yl)methylene)-2-thioxoimidazolidin-4-one], the IC50 [1] is reported as 2340 nM, the “percent viable KHYG-1 cells” value [2] is reported as 86% and the melting point is reported as over 300 °C. It also gave an inhibition at 20 µM [3] of 100%.

For `O=C1NC(=S)N/C1=C/c1cc2cc(-c3ccc4c(c3)COC4=O)ccc2[nH]1` [Cmpd 12, (E,Z)-5-((5-(1-Oxo-1,3-dihydroisobenzofuran-5-yl)-1H-indol-2-yl)methylene)-2-thioxoimidazolidin-4-one], the IC50 [1] was 720 nM, the “percent viable KHYG-1 cells” value [2] was 94% and the melting point was over 300 °C. It also gave an inhibition at 20 µM [3] of 74%.

In the case of `O=C1NC(=S)N/C1=C\c1ccc2ccc(-c3ccc4c(c3)COC4=O)cc2n1` [Cmpd 13], the IC50 [1] is reported as 1720 nM, the “percent viable KHYG-1 cells” value [2] is reported as 70% and the melting point is reported as over 310 °C. For the same compound, the inhibition at 20 µM [3] was 52%.

In the case of `COc1ccc(-c2ccc(/C=C3/NC(=S)NC3=O)s2)cc1` [Cmpd 22, (E,Z)-5-((5-(4-Methoxyphenyl)thiophen-2-yl)methylene)-2-thioxoimidazolidin-4-one], the IC50 [1] is reported as 8930 nM, the “percent viable KHYG-1 cells” value [2] is reported as 100% and the melting point is reported as 288 to 293 °C. For the same compound, the inhibition at 20 µM [3] was 78%.

In the case of `O=C1NC(=S)N/C1=C/c1ccc(-c2ccc(C(=O)NCCN3CCOCC3)cc2)s1` [Cmpd 45, (E,Z)-N-(2-Morpholinoethyl)-4-(5-((5-oxo-2-thioxoimidazolidin-4-ylidene)methyl)thiophen-2-yl)benzamide], the IC50 [1] is reported as over 20000 nM, the “percent viable KHYG-1 cells” value [2] is reported as 88% and the melting point is reported as 248 to 252 °C. It also gave an inhibition at 20 µM [3] of 78%.

In the case of `O=C1NC(=S)N/C1=C\c1cnc(-c2ccc3c(c2)COC3=O)s1` [Cmpd 55, (E,Z)-5-((2-(1-Oxo-1,3-dihydroisobenzofuran-5-yl)thiazol-5-yl)methylene)-2-thioxoimidazolidin-4-one], the IC50 [1] is reported as 1720 nM, the “percent viable KHYG-1 cells” value [2] is reported as 95% and the melting point is reported as over 300 °C. It also gave an inhibition at 20 µM [3] of 53%.

In the case of `CN(C)CCCN1Cc2cc(-c3ccc(/C=C4/NC(=S)NC4=O)s3)ccc2C1=O` [Cmpd 74, (E)-2-(3-(Dimethylamino)propyl)-5-(5-((5-oxo-2-thioxoimidazolidin-4-ylidene)methyl)thiophen-2-yl)isoindolin-1-one], the IC50 [1] is reported as over 20000 nM, the “percent viable KHYG-1 cells” value [2] is reported as 82% and the melting point is reported as 212 °C (dec.). The inhibition at 20 µM [3] was 53%.

In the case of `O=C1NC(=S)N/C1=C/c1cc2ccc(-c3ccc4c(c3)COC4=O)cc2s1` [Cmpd 80, (E,Z)-5-((6-(1-Oxo-1,3-dihydroisobenzofuran-5-yl)benzo[b]thiophen-2-yl)methylene)-2-thioxoimidazolidin-4-one], the IC50 [1] is reported as 360 nM, the “percent viable KHYG-1 cells” value [2] is reported as 75% and the melting point is reported as over 310 °C. For the same compound, the inhibition at 20 µM [3] was 55%.
